Laboratory results reported in patent US10947216B2, “Amide compounds and method for making and using” (Rigel Pharmaceuticals, Inc., priority 2016, dated 2021).

Columns and labels:
[1] = test system: IL-23 (p19/p40); test: IL23-p19 ELISA, dendritic cells (DC differentiated from human PBMC, IFNγ primed), LPS stimulated; format: cell-based; conditions: Dendritic cell, human PBMC-derived dendritic cells, 1 h compound pre-incubation, LPS 1 μg/ml 18 hours, 10 pt
Experimental: Compound Screening Using DC Cells
I. Differentiation of PBMC's to DC Cells:
After 2 hours, the media including floating cells was aspirated out carefully and 12 ml of fresh RPMI media (10% FBS) containing GMCSF (100 ng/ml) and IL4 (20 ng/ml) was added, and the flask was kept in a 37° C. incubator for 7 days.
After 3 days, fresh GMCSF (100 ng/ml) and IL4 (20 ng/ml) were added to the flask and the incubation continued. After 7 days, the fully differentiated cells were harvested by spinning down (1200 rpm/5 min) and aspirating the media. The cells were suspended in fresh RPMI media (10% FBS) containing 50 ng/ml IFNγ (1000 U/ml) and then plated (50K/well in 100 μl) onto a white clear bottom 96 well plate and left in a 37° C. incubator for 24 hours.
II. Addition of Compounds:
After 24 hours incubation, 100 μl of RPMI media was added containing 2× concentrated test compound per well to the above cell-culture media (final concentration becomes 1×) and the plates were pre-incubated for 1 hour at 37° C. before stimulating with LPS.
The mixture was shaken and incubated the plates at 37° C. for an additional 18 hours.
155 μl of the supernatant was harvested from each well carefully (without the tip touching the bottom of the well) and to the remaining 50 μl/well of the cell culture plate was added 50 μl of Cell Titer Glo reagent. The mixture was incubated for 1-2 minutes on a shaker and the plate was read for luminescence intensity to determine the compound cytotoxicity. The cell culture supernatant collected above was used to carry out IL23 ELISA (65 μl—Supernatant) and IL10 ELISA (90 μl—Supernatant) as described below.
Human IL-23 (p19/p40) ELISA Protocol (e-Biosciences)
To 10.5 ml PBS add 50 μl of anti-IL23 (p19) was added capture antibody (2.5 μg/ml). The mixture was mixed well and 100 μl of the coating solution was added to each well of the 96 well white plates from Pierce. The wells were covered and incubated overnight at 4° C.
The anti-IL23 (p19)-antibody-coated plates were washed 2× using TBST (use plate washer) and blocked using 200 μl of 0.5% Casein for 1.5-2 hours at room temperature with shaking.
Addition of Supernatant and Detection:
The plates were washed 2× using TBST and the supernatant was transferred (65 μl/well) to the above pre-blocked/IL23(p19)-antibody-coated 96 well plate, and incubated at room temperature for 1.5 hours with shaking.
The plates were washed 4× using TBST (plate washer) and 100 μl/well detection antibody solution prepared from 2 μl of biotin labeled anti-IL-12 (p40/p70) antibody in 11 ml 1% BSA/PBS solution (1-5000 dilution) was added. The plates were incubated for 1 hour with shaking at Room temperature.
Again, the plates were washed 4× with TBST and 100 μl of HRP labeled Streptavidin (R&D Systems) solution (10 μl/10 ml 1% BSA solution) was added, and the plates were incubated at room temperature for another 45 minutes with shaking.
After 45 minutes, the plates were washed with TBST 4× and 100 μl/well Super Signal ELISA Pico Chemiluminescent Substrate from Pierce (3.5 ml A+3.5 ml B+3.5 ml MQ water) was added. The plates were shaken for 1-2 minutes then read on a plate reader.

[2] = test system: IL-23p19; test: LPS Induced IL23p19 in THP-1 Cells (with IFNγ Primed) Assay; format: cell-based, human; conditions: Homo sapiens, THP-1, THP-1 cells, IFNγ (50 ng/mL) primed, 1 hour compound pre-incubation, LPS 1 ug/mL 18 hours, 10 pt; read-out: IL23-p19 ELISA, THP1-IFNy, LPS, 10 pt EC50
Outline: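 THP-1 cells (50K/well) primed ~18 h with IFNγ (50 ng/mL) in RPMI/10% FBS, then incubated with compound in duplicate for 18 h at 37° C. Supernatant IL-23p19 measured by chemiluminescent sandwich ELISA, giving EC50 by curve fitting. Toxicity assessed in parallel on the remaining cells by Cell Titer Glo.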

Row | SMILES | EC50 [1] [nM] | EC50 [2] [nM]
1 | Cn1cc(NC(=O)c2cccc(-c3cncc(NS(C)(=O)=O)c3)n2)c(-c2ccccn2)n1 [Compound I-34, N-(1-methyl-3-(pyridin-2-yl)-1H-pyrazol-4-yl)-5′-(methylsulfonamido)-[2,3′-bipyridine]-6-carboxamide] | 16100 | 71900
2 | CN(C)c1cncc(-c2cccc(C(=O)Nc3cn(C)nc3-c3ccccn3)n2)c1 [Compound I-35, 5′-(dimethylamino)-N-(1-methyl-3-(pyridin-2-yl)-1H-pyrazol-4-yl)-[2,3′-bipyridine]-6-carboxamide] | 878 | 1110
3 | Cn1cc(NC(=O)c2cccc(-c3cncc(N4CCCC4)c3)n2)c(-c2ccccn2)n1 [Compound I-36, N-(1-methyl-3-(pyridin-2-yl)-1H-pyrazol-4-yl)-5′-(pyrrolidin-1-yl)-[2,3′-bipyridine]-6-carboxamide] | 784 | 4250
4 | CN1CCN(c2cncc(-c3cccc(C(=O)Nc4cn(C)nc4-c4ccccn4)n3)c2)CC1 [Compound I-38, N-(1-methyl-3-(pyridin-2-yl)-1H-pyrazol-4-yl)-5′-(4-methylpiperazin-1-yl)-[2,3′-bipyridine]-6-carboxamide] | 33700 | 6200
5 | Cn1cc(NC(=O)c2cccc(-c3cnc4[nH]ccc4c3)n2)c(-c2ccccn2)n1 [Compound I-44, N-(1-methyl-3-(pyridin-2-yl)-1H-pyrazol-4-yl)-6-(1H-pyrrolo[2,3-b]pyridin-5-yl)picolinamide] | 1760 | 349
6 | CN(C)c1cccc(-c2cccc(C(=O)Nc3cn(C)nc3-c3ccccn3)n2)c1 [Compound I-59, 6-(3-(dimethylamino)phenyl)-N-(1-methyl-3-(pyridin-2-yl)-1H-pyrazol-4-yl)picolinamide] | 2470 | 23900
7 | Cn1cc(NC(=O)c2cccc(C3=CCCNC3)n2)c(-c2ccccn2)n1 [Compound I-65, N-(1-methyl-3-(pyridin-2-yl)-1H-pyrazol-4-yl)-1′,2′,5′,6′-tetrahydro-[2,3′-bipyridine]-6-carboxamide] | 7880 | 77200
8 | Cn1cc(NC(=O)c2cccc(-c3cn[nH]c3)n2)c(N2CCCC2)n1 [Compound I-72, N-(1-methyl-3-(pyrrolidin-1-yl)-1H-pyrazol-4-yl)-6-(1H-pyrazol-4-yl)picolinamide] | 3170 | 7580
9 | Cn1cc(NC(=O)c2cccc(-c3cn[nH]c3)n2)c(N2CCCCC2)n1 [Compound I-73, N-(1-methyl-3-(piperidin-1-yl)-1H-pyrazol-4-yl)-6-(1H-pyrazol-4-yl)picolinamide] | 2160 | 1770
10 | Cn1cc(NC(=O)c2cccc(-c3cn[nH]c3)n2)c(N2CCOCC2)n1 [Compound I-74, N-(1-methyl-3-morpholino-1H-pyrazol-4-yl)-6-(1H-pyrazol-4-yl)picolinamide] | 3820 | 18800
11 | Cc1cncc(-c2cccc(C(=O)Nc3cn(C)nc3N3CCCCC3)n2)c1 [Compound I-76, 5′-methyl-N-(1-methyl-3-(piperidin-1-yl)-1H-pyrazol-4-yl)-[2,3′-bipyridine]-6-carboxamide] | 4320 | 1930
12 | Cc1cncc(-c2cccc(C(=O)Nc3cn(C)nc3N3CCOCC3)n2)c1 [Compound I-77, 5′-methyl-N-(1-methyl-3-morpholino-1H-pyrazol-4-yl)-[2,3′-bipyridine]-6-carboxamide] | 2160 | 33200
13 | Cc1cncc(-c2cccc(C(=O)Nc3cn(C(C)C)nc3-c3ccccn3)n2)c1 [Compound I-81, N-(1-isopropyl-3-(pyridin-2-yl)-1H-pyrazol-4-yl)-5′-methyl-[2,3′-bipyridine]-6-carboxamide] | 6470 | 2780
14 | O=C(Nc1cn(CCN2CCOCC2)nc1-c1ccccn1)c1cccc(-c2cn[nH]c2)n1 [Compound I-83, N-(1-(2-morpholinoethyl)-3-(pyridin-2-yl)-1H-pyrazol-4-yl)-6-(1H-pyrazol-4-yl)picolinamide] | 82700 | 2010
15 | CN1CCN(CCn2cc(NC(=O)c3cccc(-c4cn[nH]c4)n3)c(-c3ccccn3)n2)CC1 [Compound I-86, N-(1-(2-(4-methylpiperazin-1-yl)ethyl)-3-(pyridin-2-yl)-1H-pyrazol-4-yl)-6-(1H-pyrazol-4-yl)picolinamide] | 407 | 98.5
16 | Cc1cncc(-c2cccc(C(=O)Nc3cn(CCN4CCN(C)CC4)nc3-c3ccccn3)n2)c1 [Compound I-87, 5′-methyl-N-(1-(2-(4-methylpiperazin-1-yl)ethyl)-3-(pyridin-2-yl)-1H-pyrazol-4-yl)-[2,3′-bipyridine]-6-carboxamide] | 2000 | 75.4
17 | Cn1cc(NC(=O)c2cccc(-c3ccncc3)n2)c(-c2cnccn2)n1 [Compound I-100, N-(1-methyl-3-(pyrazin-2-yl)-1H-pyrazol-4-yl)-[2,4′-bipyridine]-6-carboxamide] | 9850 | 64100
18 | Cn1cc(NC(=O)c2cccc(-c3cccnc3)n2)c(-c2cnccn2)n1 [Compound I-101, N-(1-methyl-3-(pyrazin-2-yl)-1H-pyrazol-4-yl)-[2,3′-bipyridine]-6-carboxamide] | 1830 | 14500

Now from value to molecule:

Row | EC50 [1] [nM] | EC50 [2] [nM] | SMILES
19 | 1460 | 1320 | Cn1cc(NC(=O)c2cccc(-c3ccc(N)nc3)n2)c(-c2ccccn2)n1 [Compound I-43, 6′-amino-N-(1-methyl-3-(pyridin-2-yl)-1H-pyrazol-4-yl)-[2,3′-bipyridine]-6-carboxamide]
20 | 1110 | 4480 | COc1ccc(-c2cccc(C(=O)Nc3cn(C)nc3-c3ccccn3)n2)cc1 [Compound I-52, 6-(4-methoxyphenyl)-N-(1-methyl-3-(pyridin-2-yl)-1H-pyrazol-4-yl)picolinamide]
21 | 2680 | 483 | COc1ccc(-c2nn(C)cc2NC(=O)c2cccc(-c3ccn[nH]3)n2)nc1 [Compound I-67, N-(3-(5-methoxypyridin-2-yl)-1-methyl-1H-pyrazol-4-yl)-6-(1H-pyrazol-5-yl)picolinamide]
22 | 2410 | 290 | COc1ccc(-c2nn(C)cc2NC(=O)c2cccc(-c3cn[nH]c3)n2)nc1 [Compound I-68, N-(3-(5-methoxypyridin-2-yl)-1-methyl-1H-pyrazol-4-yl)-6-(1H-pyrazol-4-yl)picolinamide]
23 | 1500 | 1200 | COc1ccc(-c2nn(C)cc2NC(=O)c2cccc(-c3cncc(C)c3)n2)nc1 [Compound I-69, N-(3-(5-methoxypyridin-2-yl)-1-methyl-1H-pyrazol-4-yl)-5′-methyl-[2,3′-bipyridine]-6-carboxamide]
24 | 415 | 300 | COc1ccc(-c2nn(C)cc2NC(=O)c2cccc(-c3cncc(NC(C)C)c3)n2)nc1 [Compound I-71, 5′-(isopropylamino)-N-(3-(5-methoxypyridin-2-yl)-1-methyl-1H-pyrazol-4-yl)-[2,3′-bipyridine]-6-carboxamide]
25 | 832 | 643 | Cc1n[nH]cc1-c1cccc(C(=O)Nc2cn(C)nc2-c2ccccn2)n1 [Compound I-78, 6-(3-methyl-1H-pyrazol-4-yl)-N-(1-methyl-3-(pyridin-2-yl)-1H-pyrazol-4-yl)picolinamide]
26 | 8790 | 2390 | CC(C)n1cc(NC(=O)c2cccc(-c3cn[nH]c3)n2)c(-c2ccccn2)n1 [Compound I-80, N-(1-isopropyl-3-(pyridin-2-yl)-1H-pyrazol-4-yl)-6-(1H-pyrazol-4-yl)picolinamide]
